Assay results reported in PubChem BioAssay (NCI).
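Growth conditions: 96-well plates. Treatment: test compound, 48 hours, 5 concentrations. Analysis: linear interpolation between bracketing concentrations; unreached endpoints set to highest concentration. TGI marks complete inhibition of growth.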

What was measured:
Test in all cases: NCI-60 cell line screen, 48 h
U251 CNS = tested on: U251 CNS
HCT-116 colon = tested on: HCT-116 colon
CAKI-1 renal = tested on: CAKI-1 renal
IGROV1 ovarian = tested on: IGROV1 ovarian
OVCAR-3 ovarian = tested on: OVCAR-3 ovarian
786-0 renal = tested on: 786-0 renal
MDA-N = tested on: MDA-N
SR leukemia = tested on: SR leukemia
BT-549 breast = tested on: BT-549 breast
OVCAR-8 ovarian = tested on: OVCAR-8 ovarian
UACC-62 melanoma = tested on: UACC-62 melanoma
NCI/ADR-RES ovarian = tested on: NCI/ADR-RES ovarian
OVCAR-4 ovarian = tested on: OVCAR-4 ovarian
SF-268 CNS = tested on: SF-268 CNS
SW-620 colon = tested on: SW-620 colon
HOP-92 NSCLC = tested on: HOP-92 NSCLC
SF-295 CNS = tested on: SF-295 CNS
MALME-3M melanoma = tested on: MALME-3M melanoma
HT29 colon = tested on: HT29 colon
SK-OV-3 ovarian = tested on: SK-OV-3 ovarian
NCI-H226 lung = tested on: NCI-H226 lung
NCI-H460 lung = tested on: NCI-H460 lung
SK-MEL-28 melanoma = tested on: SK-MEL-28 melanoma
MOLT-4 leukemia = tested on: MOLT-4 leukemia
PC-3 prostate = tested on: PC-3 prostate
EKVX NSCLC = tested on: EKVX NSCLC
SN12C renal = tested on: SN12C renal
NCI-H23 lung = tested on: NCI-H23 lung
TK-10 renal = tested on: TK-10 renal
A498 renal = tested on: A498 renal
HL-60(TB) leukemia = tested on: HL-60(TB) leukemia
MDA-MB-231 breast = tested on: MDA-MB-231 breast
K-562 leukemia = tested on: K-562 leukemia
MCF7 breast = tested on: MCF7 breast
SK-MEL-2 melanoma = tested on: SK-MEL-2 melanoma
HS 578T breast = tested on: HS 578T breast
SK-MEL-5 melanoma = tested on: SK-MEL-5 melanoma
SNB-19 CNS = tested on: SNB-19 CNS
RXF 393 renal = tested on: RXF 393 renal
SF-539 CNS = tested on: SF-539 CNS
M14 melanoma = tested on: M14 melanoma
HOP-62 NSCLC = tested on: HOP-62 NSCLC
HCC-2998 colon = tested on: HCC-2998 colon
MDA-MB-435 = tested on: MDA-MB-435
KM12 colon = tested on: KM12 colon
UACC-257 melanoma = tested on: UACC-257 melanoma
COLO 205 colon = tested on: COLO 205 colon
ACHN renal = tested on: ACHN renal
T-47D breast = tested on: T-47D breast
SNB-75 CNS = tested on: SNB-75 CNS
NCI-H522 lung = tested on: NCI-H522 lung
UO-31 renal = tested on: UO-31 renal
DU-145 prostate = tested on: DU-145 prostate
A549 NSCLC = tested on: A549 NSCLC
HCT-15 colon = tested on: HCT-15 colon
CCRF-CEM leukemia = tested on: CCRF-CEM leukemia
RPMI-8226 leukemia = tested on: RPMI-8226 leukemia
LOX IMVI melanoma = tested on: LOX IMVI melanoma
OVCAR-5 ovarian = tested on: OVCAR-5 ovarian

O=C(/C=C/c1cccc(Br)c1)c1ccc(Cl)cc1
TGI (U251 CNS): 18.6 µM | TGI (HCT-116 colon): 18 µM | TGI (CAKI-1 renal): 40.1 µM | TGI (IGROV1 ovarian): 35.8 µM | TGI (OVCAR-3 ovarian): 32.3 µM | TGI (786-0 renal): 28.3 µM | TGI (MDA-N): 20 µM | TGI (SR leukemia): 20.4 µM | TGI (BT-549 breast): 31.9 µM | TGI (OVCAR-8 ovarian): 32.1 µM | TGI (UACC-62 melanoma): 29 µM | TGI (NCI/ADR-RES ovarian): 59.2 µM | TGI (OVCAR-4 ovarian): 32.1 µM | TGI (SF-268 CNS): 34.1 µM | TGI (SW-620 colon): 13.3 µM | TGI (HOP-92 NSCLC): 31.7 µM | TGI (SF-295 CNS): 32.6 µM | TGI (MALME-3M melanoma): 29 µM | TGI (HT29 colon): 24.5 µM | TGI (SK-OV-3 ovarian): 43.6 µM | TGI (NCI-H226 lung): 33.7 µM | TGI (NCI-H460 lung): 37.3 µM | TGI (SK-MEL-28 melanoma): 29.1 µM | TGI (MOLT-4 leukemia): 77.8 µM | TGI (PC-3 prostate): 28.2 µM | TGI (EKVX NSCLC): 29.7 µM | TGI (SN12C renal): 32.4 µM | TGI (NCI-H23 lung): 32.7 µM | TGI (TK-10 renal): 27.2 µM | TGI (A498 renal): 26.5 µM | TGI (HL-60(TB) leukemia): 44.5 µM | TGI (MDA-MB-231 breast): 35.2 µM | TGI (K-562 leukemia): 45.7 µM | TGI (MCF7 breast): 16.3 µM | TGI (SK-MEL-2 melanoma): 29.3 µM | TGI (HS 578T breast): 57.3 µM | TGI (SK-MEL-5 melanoma): 27.2 µM | TGI (SNB-19 CNS): 30.1 µM | TGI (RXF 393 renal): 35.5 µM | TGI (SF-539 CNS): 30.4 µM | TGI (M14 melanoma): 28.1 µM | TGI (HOP-62 NSCLC): 35.9 µM | TGI (HCC-2998 colon): 33.7 µM | TGI (MDA-MB-435): 25.5 µM | TGI (KM12 colon): 32.5 µM | TGI (UACC-257 melanoma): 32.1 µM | TGI (COLO 205 colon): 30.9 µM | TGI (ACHN renal): 30.4 µM | TGI (T-47D breast): 32.1 µM | TGI (SNB-75 CNS): 28.1 µM | TGI (NCI-H522 lung): 30.5 µM | TGI (UO-31 renal): 29.3 µM | TGI (DU-145 prostate): 30.3 µM | TGI (A549 NSCLC): 33.5 µM | TGI (HCT-15 colon): 31.1 µM | TGI (CCRF-CEM leukemia): 24.9 µM | TGI (RPMI-8226 leukemia): 6.31 µM | TGI (LOX IMVI melanoma): 28 µM | TGI (OVCAR-5 ovarian): 30.6 µM

O=C(c1c2c(cc3c1CC1(Cc4cc5c(cc4C1)CCCC5)C3)CCCC2)C(Br)Br
TGI (U251 CNS): 30.3 µM | TGI (HCT-116 colon): 29.1 µM | TGI (CAKI-1 renal): 24.2 µM | TGI (IGROV1 ovarian): 27.1 µM | TGI (OVCAR-3 ovarian): 38.9 µM | TGI (786-0 renal): 29.1 µM | TGI (MDA-N): 29 µM | TGI (SR leukemia): 8.05 µM | TGI (BT-549 breast): 21.6 µM | TGI (OVCAR-8 ovarian): 50.4 µM | TGI (UACC-62 melanoma): 34.3 µM | TGI (NCI/ADR-RES ovarian): 50.7 µM | TGI (OVCAR-4 ovarian): 41.6 µM | TGI (SF-268 CNS): 41.7 µM | TGI (SW-620 colon): 20.5 µM | TGI (HOP-92 NSCLC): 31.9 µM | TGI (SF-295 CNS): > 100 µM | TGI (MALME-3M melanoma): 10.7 µM | TGI (HT29 colon): 44.5 µM | TGI (SK-OV-3 ovarian): 96.9 µM | TGI (NCI-H226 lung): 14.3 µM | TGI (NCI-H460 lung): > 100 µM | TGI (SK-MEL-28 melanoma): 30.7 µM | TGI (MOLT-4 leukemia): 6.33 µM | TGI (PC-3 prostate): 26.9 µM | TGI (EKVX NSCLC): > 59.8 µM | TGI (SN12C renal): 44.9 µM | TGI (NCI-H23 lung): 36.5 µM | TGI (TK-10 renal): 30.9 µM | TGI (A498 renal): 86.6 µM | TGI (HL-60(TB) leukemia): > 39.1 µM | TGI (MDA-MB-231 breast): 38.2 µM | TGI (K-562 leukemia): 18 µM | TGI (MCF7 breast): 20.2 µM | TGI (SK-MEL-2 melanoma): 39.6 µM | TGI (HS 578T breast): > 70.2 µM | TGI (SK-MEL-5 melanoma): 14.4 µM | TGI (SNB-19 CNS): > 55.1 µM | TGI (RXF 393 renal): 28.7 µM | TGI (SF-539 CNS): 38.3 µM | TGI (M14 melanoma): 15.7 µM | TGI (HOP-62 NSCLC): > 81.7 µM | TGI (HCC-2998 colon): 54.3 µM | TGI (MDA-MB-435): 28.7 µM | TGI (KM12 colon): 56.3 µM | TGI (UACC-257 melanoma): 41.9 µM | TGI (COLO 205 colon): 32.7 µM | TGI (ACHN renal): 27 µM | TGI (T-47D breast): 27.9 µM | TGI (SNB-75 CNS): 31.7 µM | TGI (NCI-H522 lung): 3.18 µM | TGI (UO-31 renal): 26.8 µM | TGI (DU-145 prostate): > 100 µM | TGI (A549 NSCLC): > 100 µM | TGI (HCT-15 colon): 33 µM | TGI (CCRF-CEM leukemia): 5.14 µM | TGI (RPMI-8226 leukemia): > 61.9 µM | TGI (LOX IMVI melanoma): 3.42 µM | TGI (OVCAR-5 ovarian): > 66.7 µM
